Activity calls are given as the source filed them. No cut-off for these calls is given here.
How the values were obtained:
Aedes aegypti [1] = test: Larvicidal activity against Aedes aegypti larvae after 24 hrs […]; type: functional
Cladosporium cucumerinum = test: Antifungal activity against Cladosporium cucumerinum assessed as inhibition of spore growth by TLC bioassay; type: functional
Aedes aegypti [2] = test: Larvicidal activity against Aedes aegypti larvae at 400 ppm after 24 hrs […]; type: functional, organism-based

SMILES	LD100 (Aedes aegypti [1]) [ppm]	Activity (Cladosporium cucumerinum) [µg]	Activity (Aedes aegypti [1])	Activity (Aedes aegypti [2])
C/C=C\c1cc(OC)c(OC)cc1OC [CIS-ASARONE]	16			
CC1(C)O[C@H]1COc1c2ccoc2cc2oc(=O)ccc12 [OXYPEUCEDANIN]	25	1		
CC(C)(O)[C@H](O)COc1c2ccoc2cc2oc(=O)ccc12 [OXYPEUCEDANIN HYDRATE]		10	inactive	inactive
Clc1ccc(COC(Cn2ccnc2)c2ccc(Cl)cc2Cl)c(Cl)c1 (configuration not stated) [MICONAZOLE]		1		

From ChEMBL document CHEMBL1159215, “Isolation of antifungal and larvicidal constituents of Diplolophium buchanani by centrifugal partition chromatography” (1995)
